Source: patent publication US6987111B2 (Alkermes Controlled Therapeutics, II, priority 2003, dated 2006)

Test: Pharmacokinetic evaluation in rats following single subcutaneous doses
Format: in vivo
Settings: male Sprague-Dawley rats, single SC injection of 40 mg in 0.75 mL aqueous diluent, plasma 2 h to 14 d
Method: Species and Strain: Sprague-Dawley rats. Male; 450+/−50 grams.
Study Groups: 4 Groups. 12 subjects
Route of Injection: Subcutaneous (SC) injection into the interscapular region. Injection Vehicle: Aqueous Diluent: Water, 3% CMC low viscosity, 0.1% Tween 20, in 0.9% NaCl Dose Volumes: Dose suspensions were formulated as follows: • Group A: 20 mg powder in 0.75 mL Diluent • Group B: 40 mg microparticles in 0.75 mL Diluent • Group C: 20 mg powder in 0.75 mL Diluent • Group D: 50 mg powder in 0.75 mL Diluent Blood Collection: Blood samples were collected via a lateral tail vein after anesthesia with Halothane. A syringe without an anticoagulant was used for the blood collection, then the whole blood was transferred to tubes containing K2 EDTA and mixing beads (Microtainer®; MFG# BD365974). The blood samples were processed (the tubes are inverted 15–20 times and centrifuged for 2 minutes at >14,000 g's) to separate plasma. The plasma samples prepared in this manner were transferred to labeled plain tubes (Microtainer®; MFG# BD5962) and stored frozen at <−70° C. Blood Volumes: At least 250 μL blood for each time point during the first 24 hours and 400 μL for each time point thereafter.

For haloperidol pamoate [pamoate salt], which “extended release profile (plasma concentrations over time)” value is on record?
The value was “good to excellent extended release profiles”.
